Legend:
L6 myotubes = experiment: cellular glucose uptake ([3H]-2DG); assay type: cell-based; settings: Ins 100 nM, Met 1 mM, UA 10 uM, RES 100 uM
Method: L6 myotubes were incubated with UA (10 μM) at different time points.

AMPK = AMPK phosphorylation in L6 myotubes; assay type: cell-based; settings: 30 min, UA 10 μM, RES 100 μM, alone or combined
Method: (§1) L6 myotubes were incubated with UA (10 μM) at different time points. Ursolic acid induced Akt phosphorylation by 1.8, 1.7, and 1.8 fold increase at 30, 45, and 60 min. […] Treatment of L6 myotubes with UA (10 μM) or RES (100 μM) for 30 min increased AMPK phosphorylation by 1.7 and 5.3 fold, respectively.

SENCAR mice [1] = experiment: TPA-mediated epidermal thickening (hyperplasia) in mouse skin; assay type: in vivo; settings: for 2 μg TPA-mediated epidermal thickening: topical 1, 2, or 3 μmol total dose, single agent
Method: (§2) Animals and treatment: Female SENCAR mice, 6-7 weeks old, were purchased from NCI Frederick (Frederick, Md.). The dorsal skin of SENCAR mice were shaved and treated topically twice per week for 2 weeks with 200 μL acetone vehicle or 1-3 μmol UA, 1-3 μmol RES, or an equimolar combination of RES and UA. Each treatment was followed 30 minutes later with topical application of 200 μL acetone vehicle or 1-2 μg of the tumor promoter TPA. In vivo sample collection: Animals were sacrificed 6 hr after the final TPA treatment for Western blotting and 48 hr after the final TPA treatment for histology. For immunohistochemical (IHC) analysis of epidermal proliferation five mice per group were i.p. injected with 100 mg/kg Bromodeoxyuridine (BrdU) in PBS 30 min prior to sacrifice. 1 cm^2 of mouse skin from treated areas was fixed in formalin and paraffin embedded to be analyzed via IHC. Immunohistochemistry (IHC): Slides were immunostained with anti-BrdU antibody. The percentage of BrdU-positive cells in the basal cell layer was determined from at least 10 randomly selected sites per slide (5 mice/group). In addition, the epidermal thickness of each skin sample was also measured at 10 random sites for 5 mice/group, using Image Pro-Discovery from Media Cybernetics (Bethesda, Md.).

SENCAR mice [2] = experiment: TPA-induced epidermal proliferation (BrdU IHC) in mouse skin; assay type: in vivo
Method: as §2

NFKB subunit p65 = experiment: TNFα-mediated p65 phosphorylation in HaCaT keratinocytes, Western blot; assay type: cell-based, human; settings: preliminary experiments, RES 100 and 200 μM, UA 10 and 20 μM, single agents
Method: Western blotting: HaCaT cells were treated with sub-optimal doses of RES, UA, or RES+UA and stimulated with 10 ng/ml human tumor necrosis factor alpha (TNFα) for 30 min. Cells were scraped into lysis buffer containing 1% Triton X-100, 0.5% IGEPAL, 0.05 M TrisHCl and 0.1 M NaCl as well as protease/phosphatase inhibitors and 5 mM EDT A. For in vivo studies, whole skin was placed on glass over ice and epidermis was removed by scraping and placed in RIPA buffer with protease/phosphatase inhibitors. Lysates were homogenized and proteins were extracted by centrifugation. Twenty micrograms of protein was separated on Bis-Tris gels and transferred onto PVDF membranes. Membranes were blocked in 5% dry milk or BSA and incubated with primary antibodies overnight at 4° C. Membranes were incubated with corresponding HRP-conjugated secondary antibodies for one hour and developed.
As mentioned before, NFKB activity is important during the tumor promotion phase.

NFKB = experiment: Luciferase assay for NFKB activity in HaCaT cells; assay type: cell-based, human
Method: Luciferase assay for NFKB activity: HaCaT cells were transfected with the NFKB Cignal Reporter Assay Kit from Qiagen, using Attractene transfection reagent, per manufacturer's instructions. Cells were plated at 1.5×10^4 cells/well in 96 well plates during the transfection. After 16 hr transfection, cells were resupplied with OptiMEM containing 0.5% FBS, 1% non-essential amino acids, 50 U/ml penicillin, and […] for 24 hr. Cells were pretreated with various doses of RES or vehicle for 1 hr, followed by UA or vehicle for 1 hr. TNFα at 10 ng/ml was added and cells were incubated for 4 hr. Luminescence of both the TNFα-induced firefly luciferase and the transfection control Renilla luciferase were measured using the Dual-Luciferase Reporter Assay System from Promega and quantified using a Biotek Synergy HT spectrophotometer.

[3] = system: Ca3/7 mouse squamous carcinoma cells; experiment: MTT assay for cell viability, Ca3/7; assay type: cell-based; settings: Ca3/7 cells, 200 μM RES
Method: MTT assay for cell viability: Cells were plated at 1.5×10^4 cells/well on 96-well plates. Cells were pretreated with RES or 0.1% vehicle for 1 hr followed by various doses of UA or 0.1% DMSO vehicle for 24 hr. In the experiment with A549 cells, 5.0×10^3 cells/well were plated, and cells were treated with UA or 0.1% DMSO for 48 hr after 1 hr pretreatment with RES or vehicle. MTT reagent (0.5 mg/ml) was added, and cells were incubated for an additional 2.5 hr. Media was removed and formazan crystals were dissolved with 100 μl DMSO. Plates were measured at 570 nm with background subtraction at 650 nm, using a Biotek Synergy HT spectrophotometer. Statistical Analyses: Differences between individual groups were determined by ANOVA. IC50 values were calculated with GraphPad Prism. Resistance Reversal (RR) was calculated by dividing the IC50 value of the UA+vehicle group by the IC50 value of the UA+RES group.

Akt = Akt phosphorylation in L6 myotubes; assay type: cell-based; settings: UA 10 μM
Method: as §1

[4] = system: Akt substrate 160 (AS160); experiment: AS160 phosphorylation in L6 myotubes; assay type: cell-based; settings: UA 10 μM
Method: as §1

[5] = 1-3 μmol doses, assayed 48 hr after the final TPA treatment

SMILES	Mean [3H]-2DG per Min per Protein [ ] (L6 myotubes) [pmol/mg/min]	Mean [3H]-DPM corrected for CYTO B (L6 myotubes) [DPM/mg]	fold change from DMSO (L6 myotubes) [fold]	AMPK phosphorylation increase (AMPK) [fold]	2 μg TPA-mediated epidermal thickening (SENCAR mice [1])	2 μg TPA-induced epidermal proliferation (SENCAR mice [2]; [5])	TNFα-induced NFKB activity (phosphorylation of p65) (NFKB subunit p65)	also measured
CN(C)C(=N)N=C(N)N [Met, Metformin, reference compound]	232.19	19718.32	1.94					
Oc1ccc(C=Cc2cc(O)cc(O)c2)cc1 [RES, resveratrol]	244.97	37819.44	2.05	5.3	no effect	limited effect	moderate effect	effect of 1 μg TPA on epidermal thickening (SENCAR mice [1]; 2 and 3 μmol doses of RES alone): no effect; NFKB activity (luciferase reporter) (NFKB; RES alone 100 and 200 μM): partially inhibited; UA-mediated growth suppression with RES [3]: increases the sensitivity
C[C@H]1[C@H](C)CC[C@]2(C(=O)O)CC[C@]3(C)C(=CC[C@@H]4[C@@]5(C)CC[C@H](O)C(C)(C)[C@@H]5CC[C@]43C)[C@H]12 [UA, Ursolic acid]	257.35	21855.37	2.15	1.7	dose-dependently reversed	limited effect	moderate effect	Akt phosphorylation fold increase (Akt; 30 min): 1.8 fold; Akt phosphorylation fold increase (Akt; 45 min): 1.7 fold; Akt phosphorylation fold increase (Akt; 60 min): 1.8 fold; AS160 phosphorylation increase ([4]; 15 min): 1.3 fold; AS160 phosphorylation increase ([4]; 30 min): 2.5 fold; AS160 phosphorylation increase ([4]; 45 min): 1.6 fold; AS160 phosphorylation increase ([4]; 60 min): 2.3 fold; effect of 1 μg TPA on epidermal thickening (SENCAR mice [1]; UA alone, 1-3 μmol): dose-dependently decreased; 2 μg TPA-induced epidermal proliferation (SENCAR mice [2]; 3 μmol of UA alone): significantly decreased; 1 μg TPA-induced epidermal proliferation (SENCAR mice [2]; UA alone, 1-3 μmol): dose-dependently decreased; TNFα-stimulated NFKB activity (luciferase reporter) (NFKB; UA alone): dose-dependently decreases
